Measured values as given in publication PMC12089509, “NorA Efflux Pump Inhibitors: Expanding SAR Knowledge of Pyrazolo[4,3‐c][1,2]benzothiazine 5,5‐Dioxide Derivatives” (Archiv Der Pharmazie, 2025).

Columns and labels:
Assay type in all cases: cell-based
[1] = test system: Staphylococcus aureus SA-1199B; test: MIC determination (broth microdilution) against SA-1199B; details: SA1199B
Description: In this study, the S. aureus strains SA‐1199B (overexpressing norA) and its isogenic parent SA‐1199 (wild type), the pair SA‐K1902 (norA‐depleted) and SA‐K2378 (complemented with a pCU1 plasmid harboring the norA promoting and coding region from SA‐1199B), were used to test EPI activity as described in a previous study. Furthermore, the S. aureus ATCC 29213 was used as the reference strain in MIC determination experiments.

[2] = molecular target: T1, S. aureus NorA efflux pump (SA-1199B strain, overexpresses the norA gene) (Staphylococcus aureus, UniProt P0A0J7); test: EtBr efflux inhibition assay; details: read-out: EtBr efflux inhibition (%), compound at 50 µM, SA-1199B
T1 construct: endogenous in cells; host or cells: S. aureus SA-1199B (overexpresses norA; isogenic parent SA-1199)
Procedure: EtBr efflux inhibition assays were conducted using the S. aureus SA‐1199B strain, which overexpresses the norA gene and has an A116E GrlA substitution. Each compound was tested at 50 µM (see Figure 2). The starting hit compound 1 was used as the internal standard for comparison with the previously reported data.
The cells were grown overnight in cation‐supplemented Mueller–Hinton broth (CAMHB) without any additives at 35°C. The organisms were subsequently diluted into CAMHB to obtain an optical density at 600 nm (OD600) of 0.7–0.8. Subsequently, the cells were pelleted and resuspended at an OD600 of 0.8 in 0.5 mL aliquots of CAMHB containing EtBr and carbonyl cyanide m‐chlorophenylhydrazone (CCCP) to “load” the cells with EtBr (final concentrations of 25 μM for EtBr and 100 μM for CCCP). Following 20 min of incubation at room temperature, the cells were pelleted and resuspended in 1 mL of fresh CAMHB. Immediately thereafter, 200 μL aliquots were transferred into the wells of white 96‐well plates, which either lacked or contained 50 or 10 μM of each test compound. Fluorescence was monitored continuously using a microplate reader (Infinite M200 Pro, TECAN) at excitation and emission wavelengths of 485 and 645 nm, respectively, for a period of 5 min. The experiments were conducted in triplicate, with two technical replicates per biological replicate. The efflux activity of the SA‐1199B strain was expressed as a percentage of fluorescence decrease over a 5‐min time course. The inhibition of this efflux by the test compounds was determined using the following equation: ([efflux in the absence] ‐ [efflux in the presence of test [compound])/[efflux in the absence of test compound] × 100, which yielded the percent efflux inhibition observed.
^a Experiments were performed in triplicate with two technical replicates per biological replicate. Efflux activity of SA-1199B was expressed as percent fluorescence decrease over a 5 min time course. Inhibition of this efflux by test compounds was determined using the equation [efflux in the absence] − [efflux in the presence of test [compound]/[efflux in the absence of test compound] × 100, giving the percent efflux inhibition observed.

[3] = test system: Staphylococcus aureus SA-1199B; details: EPI at 12.5 µg/mL
Description: For purposes of comparison, compound 1 was included as a reference.

T1 sequence (P0A0J7 whole entry): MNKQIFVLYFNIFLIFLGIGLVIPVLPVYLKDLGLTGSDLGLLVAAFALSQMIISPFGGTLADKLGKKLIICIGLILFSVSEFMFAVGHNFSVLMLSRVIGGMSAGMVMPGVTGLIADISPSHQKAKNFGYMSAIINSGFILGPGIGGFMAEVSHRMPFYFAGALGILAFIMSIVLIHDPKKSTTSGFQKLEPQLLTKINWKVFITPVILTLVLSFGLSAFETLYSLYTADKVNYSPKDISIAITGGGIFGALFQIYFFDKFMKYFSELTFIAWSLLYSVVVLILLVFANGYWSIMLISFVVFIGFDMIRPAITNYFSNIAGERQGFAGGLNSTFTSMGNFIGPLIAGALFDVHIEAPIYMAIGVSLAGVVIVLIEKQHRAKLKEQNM

Compound | MIC [1] [µg/mL] | inhibition at 50 µM [2] [%] | N° fold CPX MIC reduction [3] [fold]
CN1c2c(-c3ccc(Cl)cc3)nn(-c3ccc([N+](=O)[O-])cc3)c2-c2ccccc2S1(=O)=O [Compound 2] | > 50 | 0 | 
Cc1nn(-c2ccc([N+](=O)[O-])cc2)c2c1NS(=O)(=O)c1ccccc1-2 [Compound 4] | > 50 | 0 | 
Cc1nn(-c2ccc([N+](=O)[O-])cc2)c2c1S(=O)(=O)Nc1ccccc1-2 [Compound 5, 3‐Methyl‐1‐(4‐nitrophenyl)‐1,5‐dihydropyrazolo[4,3‐c][2,1]benzothiazine 4,4‐dioxide] | > 50 | 0 | 
Cc1nn(-c2ccc([N+](=O)[O-])cc2)c2c1N(C)S(=O)(=O)c1ccccc1-2 [Compound 6] | > 50 | 22 | 
Cc1nn(-c2ccc([N+](=O)[O-])cc2)c2c1S(=O)(=O)N(C)c1ccccc1-2 [Compound 7, 3,5‐Dimethyl‐1‐(4‐nitrophenyl)‐1,5‐dihydropyrazolo[4,3‐c][2,1]benzothiazine 4,4‐dioxide] | > 50 | 3 | 
Cc1cc(-c2ccccc2NS(C)(=O)=O)n(-c2ccccc2)n1 [Compound 8, N‐[2‐(3‐Methyl‐1‐phenyl‐1H‐pyrazol‐5‐yl)phenyl]methanesulfonamide] | > 50 | 0 | 2
O=S1(=O)Nc2c(-c3ccc(Cl)cc3)n[nH]c2-c2ccccc21 [Compound 9, 3‐(4‐Chlorophenyl)‐1,4‐dihydropyrazolo[4,3‐c][1,2]benzothiazine 5,5‐dioxide] | > 50 | 12 | 2
CN1c2c(-c3ccccc3)n[nH]c2-c2ccccc2S1(=O)=O [Compound 11, 4‐Methyl‐3‐phenyl‐1,4‐dihydropyrazolo[4,3‐c][1,2]benzothiazine 5,5‐dioxide] | > 50 | < 70 | 
CCN1c2c(-c3ccc(F)cc3)n[nH]c2-c2ccccc2S1(=O)=O [Compound 14, 4‐Ethyl‐3‐(4‐fluorophenyl)‐1,4‐dihydropyrazolo[4,3‐c][1,2]benzothiazine 5,5‐dioxide] | > 50 | 57 | 2
O=S1(=O)c2ccccc2-c2[nH]nc(-c3ccc(F)cc3)c2N1CCCO [Compound 15, 3‐[3‐(4‐Fluorophenyl)‐5,5‐dioxidopyrazolo[4,3‐c][1,2]benzothiazin‐4(1H)‐yl]propan‐1‐ol] | > 50 | 17 | 2
CNC(=O)CN1c2c(-c3ccc(F)cc3)n[nH]c2-c2ccccc2S1(=O)=O [Compound 16, 2‐[3‐(4‐Fluorophenyl)‐5,5‐dioxidopyrazolo[4,3‐c][1,2]benzothiazin‐4(1H)‐yl]‐N‐methylacetamide] | > 50 | 22 | 2
CNCCN1c2c(-c3ccc(F)cc3)n[nH]c2-c2ccccc2S1(=O)=O [Compound 17, 2‐[3‐(4‐Fluorophenyl)‐5,5‐dioxidopyrazolo[4,3‐c][1,2]benzothiazin‐4(1H)‐yl]‐N‐methylethanamine] | > 50 | 57 | 
CN1c2c(-c3ccc(F)cc3)nn(C)c2-c2ccc(OCC(O)CO)cc2S1(=O)=O (stereo not shown) [Compound 21, 3‐{[3‐(4‐Fluorophenyl)‐1,4‐dimethyl‐5,5‐dioxido‐1,4‐dihydropyrazolo[4,3‐c][1,2]benzothiazin‐7‐yl]oxy}propane‐1,2‐diol] | > 50 | 0 | 
COc1ccc2c(c1)S(=O)(=O)N(C)c1c(-c3ccc(F)cc3)nn(C)c1-2 [Compound 22, 3‐(4‐Fluorophenyl)‐7‐methoxy‐1,4‐dimethyl‐1,4‐dihydropyrazolo[4,3‐c][1,2]benzothiazine 5,5‐dioxide] | > 50 | 22 | 2
